According to patent publication US10544143B2, “4-azaindole compounds” (BRISTOL-MYERS SQUIBB COMPANY, priority 2017, dated 2020):
Where two headings read alike, the source gives them in different places.

Tests used:
[1] = target: human TLR7 (Homo sapiens (Human), UniProt Q9NYK1); test: TLR7 inhibition reporter assay (HEK-Blue SEAP); format: cell-based
[2] = target: human TLR8 (Homo sapiens (Human), UniProt Q9NR97); test: TLR8 inhibition reporter assay (HEK-Blue SEAP); settings: read-out: TLR8 IC50;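 also: SEAP driven by IFN-β minimal promoter carrying NF-κB and AP-1 sites, compounds dosed 0.05 nM to 50 µM for 22 h, inhibition scaled between agonist-plus-DMSO and reference-inhibitor wells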
[3] = target: human TLR9 (Homo sapiens (Human), UniProt Q9NR96); test: TLR9 inhibition reporter assay (HEK-Blue SEAP); settings: read-out: TLR9 IC50;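 also: SEAP driven by an IFN-β minimal promoter with NF-κB and AP-1 sites, read after 22 h, compounds dosed 0.05 nM–50 µM, inhibition scaled between agonist plus DMSO and reference-inhibitor wells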
[4] = HEK-Blue cells overexpressing human TLR7, gardiquimod 7.5 μM stimulation, SEAP reporter
[5] = HEK-Blue cells overexpressing human TLR8, R848 15.9 μM stimulation, SEAP reporter
[6] = HEK-Blue cells overexpressing human TLR9, ODN2006 5 nM stimulation, SEAP reporter
[7] = HEK-Blue cells overexpressing human TLR7, SEAP reporter, gardiquimod 7.5 μM
[8] = HEK-Blue cells overexpressing human TLR8, SEAP reporter, R848 15.9 μM
[9] = HEK-Blue cells overexpressing human TLR9, SEAP reporter, ODN2006 5 nM
[10] = HEK-Blue human TLR7 cells, gardiquimod 7.5 μM
[11] = HEK-Blue human TLR8 cells, R848 15.9 μM
[12] = HEK-Blue human TLR9 cells, ODN2006 5 nM

Chain of human TLR9 (Q9NR96 26-1032): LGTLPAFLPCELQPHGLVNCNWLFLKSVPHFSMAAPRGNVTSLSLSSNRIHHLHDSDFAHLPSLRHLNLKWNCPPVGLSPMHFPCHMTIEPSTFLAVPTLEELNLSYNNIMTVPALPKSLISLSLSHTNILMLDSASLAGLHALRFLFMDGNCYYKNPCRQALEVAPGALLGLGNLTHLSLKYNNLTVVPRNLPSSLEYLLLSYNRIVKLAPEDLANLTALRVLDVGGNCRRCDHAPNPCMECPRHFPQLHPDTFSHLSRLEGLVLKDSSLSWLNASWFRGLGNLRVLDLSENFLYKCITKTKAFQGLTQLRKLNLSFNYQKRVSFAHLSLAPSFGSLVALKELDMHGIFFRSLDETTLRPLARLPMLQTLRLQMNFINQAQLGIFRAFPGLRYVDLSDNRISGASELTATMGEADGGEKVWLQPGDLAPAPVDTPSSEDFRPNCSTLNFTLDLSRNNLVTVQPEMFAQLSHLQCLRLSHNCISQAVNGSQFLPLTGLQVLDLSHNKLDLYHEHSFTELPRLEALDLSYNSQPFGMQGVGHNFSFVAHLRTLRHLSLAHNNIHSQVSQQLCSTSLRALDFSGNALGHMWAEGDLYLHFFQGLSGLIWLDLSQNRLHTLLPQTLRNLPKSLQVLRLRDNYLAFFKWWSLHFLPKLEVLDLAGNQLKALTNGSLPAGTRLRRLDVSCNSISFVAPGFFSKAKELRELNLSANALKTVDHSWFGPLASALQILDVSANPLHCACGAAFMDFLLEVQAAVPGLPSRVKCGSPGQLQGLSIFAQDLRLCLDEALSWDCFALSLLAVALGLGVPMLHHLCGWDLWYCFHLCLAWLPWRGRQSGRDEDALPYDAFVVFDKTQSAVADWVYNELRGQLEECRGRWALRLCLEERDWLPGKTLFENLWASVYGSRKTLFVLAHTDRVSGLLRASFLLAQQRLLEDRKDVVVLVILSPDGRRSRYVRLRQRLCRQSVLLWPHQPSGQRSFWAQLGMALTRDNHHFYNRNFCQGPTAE
Chain of human TLR7 (Q9NYK1 27-1049): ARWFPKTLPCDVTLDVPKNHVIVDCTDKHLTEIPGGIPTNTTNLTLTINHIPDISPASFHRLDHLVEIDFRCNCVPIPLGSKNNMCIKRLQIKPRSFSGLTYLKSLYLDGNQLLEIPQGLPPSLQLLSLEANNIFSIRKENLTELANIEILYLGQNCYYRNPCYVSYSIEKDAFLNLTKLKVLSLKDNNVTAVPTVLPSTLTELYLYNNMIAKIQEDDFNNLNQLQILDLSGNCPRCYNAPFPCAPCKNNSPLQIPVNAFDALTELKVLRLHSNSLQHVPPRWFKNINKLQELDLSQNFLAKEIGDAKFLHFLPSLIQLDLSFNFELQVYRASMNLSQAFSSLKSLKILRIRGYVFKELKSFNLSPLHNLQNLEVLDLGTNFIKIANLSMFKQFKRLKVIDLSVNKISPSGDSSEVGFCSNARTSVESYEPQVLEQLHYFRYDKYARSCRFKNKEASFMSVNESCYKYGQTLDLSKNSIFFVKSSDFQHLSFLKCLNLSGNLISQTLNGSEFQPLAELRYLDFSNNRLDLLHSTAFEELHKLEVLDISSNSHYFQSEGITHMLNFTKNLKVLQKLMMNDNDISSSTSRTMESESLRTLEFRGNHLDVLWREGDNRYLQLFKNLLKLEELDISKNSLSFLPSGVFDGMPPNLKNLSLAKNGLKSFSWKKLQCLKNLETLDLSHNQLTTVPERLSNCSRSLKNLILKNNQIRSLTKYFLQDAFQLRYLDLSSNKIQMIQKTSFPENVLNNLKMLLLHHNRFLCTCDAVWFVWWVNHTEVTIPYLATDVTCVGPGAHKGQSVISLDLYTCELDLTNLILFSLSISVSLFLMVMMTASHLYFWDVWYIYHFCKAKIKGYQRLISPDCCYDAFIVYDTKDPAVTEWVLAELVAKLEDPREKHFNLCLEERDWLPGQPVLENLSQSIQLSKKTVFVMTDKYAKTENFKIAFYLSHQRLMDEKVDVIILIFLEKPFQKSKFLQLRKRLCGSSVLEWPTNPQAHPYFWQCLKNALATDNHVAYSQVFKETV
Chain of human TLR8 (Q9NR97 27-1041): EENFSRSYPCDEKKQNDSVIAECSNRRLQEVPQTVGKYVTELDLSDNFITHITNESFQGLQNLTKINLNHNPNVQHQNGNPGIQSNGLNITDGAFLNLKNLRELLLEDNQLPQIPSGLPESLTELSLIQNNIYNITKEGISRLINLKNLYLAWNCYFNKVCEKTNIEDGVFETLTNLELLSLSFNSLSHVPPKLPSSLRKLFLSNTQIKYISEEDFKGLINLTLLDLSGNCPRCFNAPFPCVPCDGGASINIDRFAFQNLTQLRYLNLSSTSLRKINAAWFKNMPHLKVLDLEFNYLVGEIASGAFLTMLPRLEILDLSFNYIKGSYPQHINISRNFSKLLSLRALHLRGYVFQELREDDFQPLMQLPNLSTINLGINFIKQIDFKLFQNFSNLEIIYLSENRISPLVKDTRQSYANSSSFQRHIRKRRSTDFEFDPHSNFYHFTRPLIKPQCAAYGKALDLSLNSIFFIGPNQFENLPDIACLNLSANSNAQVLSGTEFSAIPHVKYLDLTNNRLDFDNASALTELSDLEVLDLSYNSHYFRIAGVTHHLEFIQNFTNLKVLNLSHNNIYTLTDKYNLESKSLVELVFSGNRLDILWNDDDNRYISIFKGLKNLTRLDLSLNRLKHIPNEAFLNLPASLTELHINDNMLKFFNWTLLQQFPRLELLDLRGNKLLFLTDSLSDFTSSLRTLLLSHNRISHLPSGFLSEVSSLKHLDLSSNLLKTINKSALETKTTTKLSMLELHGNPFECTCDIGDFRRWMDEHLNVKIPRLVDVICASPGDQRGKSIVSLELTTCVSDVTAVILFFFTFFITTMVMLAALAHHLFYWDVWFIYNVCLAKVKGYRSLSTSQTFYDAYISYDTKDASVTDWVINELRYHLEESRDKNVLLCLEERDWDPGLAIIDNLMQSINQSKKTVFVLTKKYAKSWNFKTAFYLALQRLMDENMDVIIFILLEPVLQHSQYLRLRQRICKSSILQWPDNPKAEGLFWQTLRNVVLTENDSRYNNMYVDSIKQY

SMILES | IC50 [1, 4] | IC50 [2, 5] | IC50 [3, 6] | IC50 [1, 7] | IC50 [2, 8] | IC50 [3, 9] | other results
CC(C)c1c(-c2cc(CO)c3ncnn3c2)[nH]c2ccc(N3CCC(NC4CCOCC4)CC3)nc12 [Example 80] | 1.3 nM | 1.6 nM | 4560 nM | – | – | – | –
COc1cc(-c2[nH]c3cc(C)c(C4CCN(CC(C)(C)O)CC4)nc3c2C(C)C)cn2ncnc12 [Example 587] | – | – | – | 0.31 nM | 27 nM | 1410 nM | –
COc1cc(-c2[nH]c3ccc(C4CN(C(=O)CN(C)C)C4)nc3c2C(C)C)cn2ncnc12 [Example 652] | – | – | – | 3 nM | 22 nM | 1600 nM | –
COc1ncnc(OC)c1CNC1CCN(c2ccc3[nH]c(-c4cn5ncnc5c(C)c4C)c(C(C)C)c3n2)CC1 [Example 69] | 1310 nM | 1310 nM | 25800 nM | – | – | – | –
CCn1cc(-c2[nH]c3ccc(C4CCC(NC5CCOCC5)CC4)nc3c2C(C)C)c2cccnc21 (stereo not drawn) [Example 292] | 99 nM | 127 nM | 1620 nM | – | – | – | –
Cc1c(-c2[nH]c3ccc(C4CCC(N(CCO)CCS(C)(=O)=O)CC4)nc3c2C(C)C)cn2ncnc2c1C (stereo not drawn) [Example 461] | – | – | – | 2.6 nM | 1.7 nM | 8470 nM | –
Cc1c(-c2[nH]c3ccc(C4CNC4)nc3c2C(C)C)cn2ncnc2c1C [Example 649, 6-(5-(azetidin-3-yl)-3-isopropyl-1H-pyrrolo[3,2-b]pyridin-2-yl)-7,8-dimethyl-[1,2,4]triazolo[1,5-a]pyridine] | – | – | – | 6.2 nM | 10 nM | 3280 nM | –
COc1cc(-c2[nH]c3ccc(N4CCN(CCNS(C)(=O)=O)CC4)nc3c2C(C)C)cn2ncnc12 [Example 134] | 3.7 nM | 1.1 nM | 26100 nM | – | – | – | –
Cc1c(-c2[nH]c3ccc(C4CCC(N5CCCC5)CC4)nc3c2C(C)C)cn2ncnc2c1C (stereo not drawn) [Example 407] | – | – | – | 7.2 nM | 8.5 nM | 2460 nM | –
COc1cc(-c2[nH]c3ccc(CCC4CN(C5COC5)C4)nc3c2C(C)C)cn2ncnc12 [Example 700] | – | – | – | 26 nM | 43 nM | 2330 nM | –
Cc1c(-c2[nH]c3ccc(C4CC(N(C)C)C4)nc3c2C(C)C)cn2ncnc2c1C (stereo not drawn) [Example 623] | – | – | – | 1.6 nM | 2 nM | 3130 nM | –
Cc1c(-c2[nH]c3ccc(N4CCN(C(C)C)CC4)nc3c2C(C)C)cn2ncnc2c1C [Example 100] | 3.2 nM | 0.55 nM | 6150 nM | – | – | – | –
Cc1c(-c2[nH]c3ccc(N4C[C@@H](C)N(C(=O)CN(C)C)[C@H](C)C4)nc3c2C(C)C)cn2ncnc2c1C [Example 885] | – | – | – | – | – | – | IC50 [1, 10]: 1.6 nM; IC50 [2, 11]: 3.8 nM; IC50 [3, 12]: 7850 nM
COc1cc(-c2[nH]c3ccc(C4CCC(NCCS(C)(=O)=O)C4)nc3c2C(C)C)cn2ncnc12 (stereo not drawn) [Example 709] | – | – | – | 2330 nM | > 3120 nM | > 50000 nM | –
Cc1c(-c2[nH]c3ccc(C4CCC(NC5COC5)CC4)nc3c2C(C)C)cn2cnnc2c1C (stereo not drawn) [Example 234] | 1.6 nM | 5 nM | 435 nM | – | – | – | –
COc1cc(-c2[nH]c3cc(C)c(C4CCC(N(C)Cc5ncn(C)n5)CC4)nc3c2C(C)C)cn2ncnc12 (stereo not drawn) [Example 332] | 1.3 nM | 88 nM | 2660 nM | – | – | – | –
Cc1c(-c2[nH]c3ccc(N4CC(N(C)CC(=O)N(C)C)C4)nc3c2C(C)C)cn2ncnc2c1C [Example 21] | 91 nM | 46 nM | > 50000 nM | – | – | – | –
COc1cc(-c2[nH]c3ccc(C4CN(C(=O)CCN(C)C)CCO4)nc3c2C(C)C)cn2ncnc12 (stereo not drawn) [Example 672] | – | – | – | 4.7 nM | 90 nM | 6240 nM | –
COc1cc(-c2[nH]c3ccc(C4CCC(N(C)C(C)C)CC4)nc3c2C(C)C)cn2ncnc12 (stereo not drawn) [Example 170] | 2 nM | 17 nM | 1410 nM | – | – | – | –
Cc1c(-c2[nH]c3ccc(C4CCC(N(C)CC5(S(C)(=O)=O)CC5)CC4)nc3c2C(C)C)cn2ncnc2c1C (stereo not drawn) [Example 479] | – | – | – | 2.9 nM | 10 nM | 23700 nM | –

SMILES | IC50 [1, 4] | IC50 [2, 5] | IC50 [3, 6] | IC50 [1, 7] | IC50 [2, 8] | IC50 [3, 9] | other results
Cc1c(-c2[nH]c3ccc(N4CCC(N(Cc5cn(C)nn5)Cc5cn(C)nn5)CC4)nc3c2C(C)C)cn2ncnc2c1C [Example 73] | 29 nM | 5.7 nM | 24900 nM | – | – | – | –
COCC(C)N1CCN(c2ccc3[nH]c(-c4cc(OC)c5ncnn5c4)c(C(C)C)c3n2)CC1 (stereo not drawn) [Example 112] | 2.2 nM | 1.2 nM | 6010 nM | – | – | – | –
COc1cc(-c2[nH]c3ccc(N4CCN(CC(N)=O)CC4)nc3c2C(C)C)cn2ncnc12 [Example 130] | 4.3 nM | 4.7 nM | > 50000 nM | – | – | – | –
COc1ncc(CNC2CCN(c3ccc4[nH]c(-c5cn6ncnc6c(C)c5C)c(C(C)C)c4n3)CC2)cn1 [Example 72] | 2.9 nM | 0.9 nM | 3420 nM | – | – | – | –
Cc1c(-c2[nH]c3ccc(N4CCN(C(=O)CNC(C)C)CC4)nc3c2C(C)C)cn2ncnc2c1C [Example 157] | 2.2 nM | 1.2 nM | 8840 nM | – | – | – | –
CC(C)c1c(-c2cc(CO)c3ncnn3c2)[nH]c2ccc(N3CCC(NCC4(C)COC4)CC3)nc12 [Example 82] | 0.77 nM | 0.41 nM | 6380 nM | – | – | – | –
Cc1c(-c2[nH]c3ccc(C4CCC(N5CCOCC5)CC4)nc3c2C(C)C)cn2ncnc2c1C (stereo not drawn) [Example 1064] | – | – | – | – | – | – | IC50 [1, 10]: 0.34 nM; IC50 [2, 11]: 0.96 nM; IC50 [3, 12]: 2460 nM
Cc1c(-c2[nH]c3ccc(N4C[C@H](C)N(C(=O)CN(C)C(C)(C)C)C[C@H]4C)nc3c2C(C)C)cn2ncnc2c1C [Example 939] | – | – | – | – | – | – | IC50 [1, 10]: 1.5 nM; IC50 [2, 11]: 9.8 nM; IC50 [3, 12]: 11900 nM
Cc1c(-c2[nH]c3ccc(C4CCC(NC(C)(C)C(=O)N(C)C)CC4)nc3c2C(C)C)cn2ncnc2c1C (stereo not drawn) [Example 495] | – | – | – | 3.3 nM | 1.3 nM | 3600 nM | –
CC(C)c1c(-c2cn(C)c3ncccc23)[nH]c2ccc(C3CCC(NC4COC4)CC3)nc12 (stereo not drawn) [Example 184] | 8.8 nM | 18 nM | 2050 nM | – | – | – | –
CCN1CCN(c2ccc3[nH]c(-c4cc(OC)c5ncnn5c4)c(C(C)C)c3n2)CC1 [Example 119] | 1.8 nM | 0.96 nM | 14100 nM | – | – | – | –
CC(C)c1c(-c2cn(C)c3ncccc23)[nH]c2ccc(N3CC(N)C3)nc12 [Example 35] | 589 nM | 282 nM | 13800 nM | – | – | – | –
Cc1c(-c2[nH]c3ccc(N4C[C@@H](C)N(C(=O)CN(C)C)C[C@H]4C)nc3c2C(C)C)cn2ncnc2c1C [Example 796] | – | – | – | – | – | – | IC50 [1, 10]: 6 nM; IC50 [2, 11]: 15 nM; IC50 [3, 12]: 11300 nM
Cc1c(-c2[nH]c3cc(F)c(C4CCC(N)CC4)nc3c2C(C)C)cn2ncnc2c1C (stereo not drawn) [Example 507] | – | – | – | 1.1 nM | 2.4 nM | 8490 nM | –
CC(C)c1c(-c2cn(CCS(C)(=O)=O)c3ncccc23)[nH]c2ccc(C3CCC(N4CC5(COC5)C4)CC3)nc12 (stereo not drawn) [Example 258] | 13 nM | 3.5 nM | 100 nM | – | – | – | –
COc1cc(-c2[nH]c3cc(F)c(C4CCNCC4)nc3c2C(C)C)cn2ncnc12 [Example 524] | – | – | – | 0.88 nM | 6.7 nM | 407 nM | –
COCCN(C1CCC(c2ccc3[nH]c(-c4cn5ncnc5c(C)c4C)c(C(C)C)c3n2)CC1)C1(CO)COC1 (stereo not drawn) [Example 499] | – | – | – | 607 nM | 833 nM | > 50000 nM | –
Cc1c(-c2[nH]c3ccc(N4CCN(CCC(N)=O)C[C@H]4C)nc3c2C(C)C)cn2ncnc2c1C [Example 807] | – | – | – | – | – | – | IC50 [1, 10]: 0.95 nM; IC50 [2, 11]: 1.3 nM; IC50 [3, 12]: 16300 nM
Cc1c(-c2[nH]c3ccc(N4CCN(C(=O)CN5CCC6(COC6)C5)CC4)nc3c2C(C)C)cn2ncnc2c1C [Example 957] | – | – | – | – | – | – | IC50 [1, 10]: 0.92 nM; IC50 [2, 11]: 2.9 nM; IC50 [3, 12]: 24400 nM
Cc1c(-c2[nH]c3ccc(N4C[C@H](C)N(C(=O)CN(C)C)[C@@H](C)C4)nc3c2C(C)C)cn2ncnc2c1C [Example 760] | – | – | – | 4.2 nM | 27 nM | 7630 nM | –
